Data on three compounds can be found in publication PMC8199471, “Identification, Characterization and Antihypertensive Effect In Vivo of a Novel ACE-Inhibitory Heptapeptide from Defatted Areca Nut Kernel Globulin Hydrolysates” (Molecules, 2021).

For experiment [1], the system named is spontaneously hypertensive rats (SHRs). Kind of experiment: Antihypertensive effect in vivo, tail-cuff SBP and DBP. On the set-up: species or system rat. Conditions: positive control, oral 14 mg/kg/body weight once daily, throughout the experiment period. As for the experimental part: The antihypertensive effect of the synthesized peptide was determined as per the same procedure described by Zheng et al.. Briefly, spontaneously hypertensive rats (SHRs, male, 12 weeks age) were purchased from VRL Animal Technology Co., Ltd. (Beijing, China). The SHRs were randomly divided into positive control group, low-, middle- and high-dosage groups, and negative control group. Each group contains four rats. […] In addition, SHRs in the negative group were orally given saline (0.9%). After an adaptation period of one week, the weight, systolic blood pressure (SBP) and diastolic blood pressure (DBP) of SHRs were measured using the tail-cuff method once week. Moreover, the animal experiment was conducted in conformity with institutional guidelines for the care and use of laboratory animals in Shanxi University of Chinese Medicine, Taiyuan, China. All the rats received human care conforming to the National Institutes of Health Guide for care and Use of Laboratory Animals (Publication No. 85-23, revised 1985).

In a further experiment the target is T1, ACE (from rabbit lung) (Oryctolagus cuniculus, UniProt P12822).
T1 construct: ACE (from rabbit lung); purchased Sigma Co., St. Louis, MO, USA; host or cells: rabbit lung (tissue-derived)
T1 sequence (P12822 34-1310): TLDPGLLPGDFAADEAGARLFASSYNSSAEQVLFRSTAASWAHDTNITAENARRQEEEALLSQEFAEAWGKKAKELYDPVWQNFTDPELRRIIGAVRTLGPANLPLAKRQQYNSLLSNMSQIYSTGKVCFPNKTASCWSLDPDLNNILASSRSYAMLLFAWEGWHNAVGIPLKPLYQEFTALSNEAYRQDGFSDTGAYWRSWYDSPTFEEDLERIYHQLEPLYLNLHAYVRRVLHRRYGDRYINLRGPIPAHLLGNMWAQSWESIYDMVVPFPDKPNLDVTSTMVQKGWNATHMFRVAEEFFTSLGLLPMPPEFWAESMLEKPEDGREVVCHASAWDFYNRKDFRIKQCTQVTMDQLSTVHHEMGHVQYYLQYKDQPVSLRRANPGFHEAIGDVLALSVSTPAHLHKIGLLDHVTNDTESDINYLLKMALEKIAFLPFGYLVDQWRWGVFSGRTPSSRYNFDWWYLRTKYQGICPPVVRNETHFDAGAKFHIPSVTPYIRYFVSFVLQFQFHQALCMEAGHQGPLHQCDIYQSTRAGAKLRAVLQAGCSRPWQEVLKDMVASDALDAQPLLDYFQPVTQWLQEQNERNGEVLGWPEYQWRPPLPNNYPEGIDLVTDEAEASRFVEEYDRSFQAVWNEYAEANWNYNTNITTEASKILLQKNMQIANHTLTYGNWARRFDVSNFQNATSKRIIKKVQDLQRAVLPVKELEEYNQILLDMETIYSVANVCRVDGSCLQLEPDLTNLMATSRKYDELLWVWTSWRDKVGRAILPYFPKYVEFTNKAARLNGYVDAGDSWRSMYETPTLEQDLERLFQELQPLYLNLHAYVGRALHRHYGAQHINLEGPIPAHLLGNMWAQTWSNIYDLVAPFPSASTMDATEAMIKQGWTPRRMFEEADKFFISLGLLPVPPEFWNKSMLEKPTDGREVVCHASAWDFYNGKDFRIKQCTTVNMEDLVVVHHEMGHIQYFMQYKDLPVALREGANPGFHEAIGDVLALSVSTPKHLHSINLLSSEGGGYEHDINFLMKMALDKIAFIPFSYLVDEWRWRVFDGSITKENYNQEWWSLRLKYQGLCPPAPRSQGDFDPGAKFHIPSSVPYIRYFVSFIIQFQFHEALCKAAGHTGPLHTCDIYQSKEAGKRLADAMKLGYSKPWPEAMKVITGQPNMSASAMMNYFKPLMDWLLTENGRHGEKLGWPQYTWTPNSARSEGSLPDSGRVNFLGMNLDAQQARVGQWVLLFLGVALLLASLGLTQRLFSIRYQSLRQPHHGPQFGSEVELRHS
Kind of experiment: ACE-inhibitory activity assay (HHL substrate, method of Jimsheena and Gowda). The experiment is classed as biochemical. Conditions: synthesized peptide; calculated from regression y = 12.464 ln(x) − 28.656. An excerpt: Areca nut kernel was purchased from Sanpo Palm Ground Part Co., Haikou, China. Cellulase (from Trichoderma viride G, 3.0 × 10^5 U), trypsin (5 × 10^[…]) and alcalase (1 × 10^[…]) were purchased from Tian Keji Co., Ltd. (Tianjin, China). EA.hy926 cells were purchased from the Type Culture Collection of the Chinese Academy of Sciences, Shanghai, China. Captopril, ACE (from rabbit lung) and N-Hippuryl-His-Leu hydrate (HHL) were purchased from Sigma Co., St. Louis, MO, USA. Endothelin-1 Elisa kit was from Pensui Biotech Co. (Wuhan, China). DMEM (Dulbecco's modified Eagle's medium) were obtained from JiQing Biotech. Co., Ltd. (Nanjing, China). Other chemicals and reagents were of analytical grade and purchased from Peisu Co., Ltd. (Xi'an, China). ACE-inhibitory activity was determined using the same procedure as described by Jimsheena and Gowda. The concentration of the sample required for inhibiting 50% of ACE activity was defined as IC50 value. The ACE inhibition kinetics of peptides identified in ANKGH was analyzed by Lineweaver-Burk plots of 1/V versus 1/HHL in the presence of the inhibitor [17]. The concentrations of HHL (N-hippuryl-His-Leu hydrate) used were 0.76 to 7.60 mM.

The subject of the next experiment is ACE. On the set-up: method as in 2 sources, one per row (each row's own in cited_ref): ref 18 = [18]; PMID 29606478; doi:10.1016/j.foodchem.2018.02.107; 18. Tu M. Wang C. Chen C. Zhang R. Liu H. Lu W. Jiang L. Du M. Identification of a novel ACE-inhibitory peptide from casein and evaluation of the inhibitory mechanisms Food Chem. 2018 256 98 104 10.10 ||| ref 20 = [20]; PMID 30229250; doi:10.1039/C8FO00569A; 20. Ling Y. Sun L.P. Zhuang Y.L. Preparation and identification of novel inhibitory angiotensin-I-converting enzyme peptides from tilapia skin gelatin hydrolysates: Inhibition kinetics and molecular d. Conditions: peptide identified in casein protein; cited from earlier work.

Ends that are not written are not given here.

As for `C[C@H](CS)C(=O)N1CCC[C@H]1C(=O)O` [Captopril], in experiment [1], the “DBP of SHRs among all test groups” value is on record as “lowest” and the “SBP of SHRs among all test groups” value is reported as “lowest”.
For orientation: IC50 means the concentration that inhibits the measured activity by half. As for “APKIEEV [APKIEEV, Ala–Pro–Lys–Ile–Glu–Glu–Val]”, at ACE (from rabbit lung), the IC50 was 550 µM.
Turning to NMAINPSKENLCSTFCK, the 50% inhibitory concentration (IC50) in the experiment on ACE is 129 µM.
